Results published in the supplement of paper PMC13380429.

Tests used:
Conditions in all cases: 72 h
Calu-3 [1] = assay: cell viability relative to DMSO; higher = less toxic
HepG2 [2] = assay: as above
U2OS [3] = assay: as above
Vero E6 [4] = assay: as above
Calu-3 [5] = assay: relative viability EC50 (midpoint between 100% and the lowest measured viability); higher = less toxic
HepG2 [6] = assay: as above
U2OS [7] = assay: as above
Vero E6 [8] = assay: as above
Calu-3 [9] = assay: drug sensitivity score (DSS) for viability; higher = more toxic; extreme values may be limits of the assay
HepG2 [10] = assay: as above
U2OS [11] = assay: as above
Vero E6 [12] = assay: as above
Caco-2 [13] = assay: cell viability relative to DMSO; higher = less toxic
Caco-2 [14] = assay: drug sensitivity score (DSS) for viability; higher = more toxic; extreme values may be limits of the assay
Caco-2 [15] = assay: relative viability EC50 (midpoint between 100% and the lowest measured viability); higher = less toxic

SMILES	cell viability (Calu-3 [1]; 1 nM) [%]	cell viability (Calu-3 [1]; 10 nM) [%]	cell viability (Calu-3 [1]; 100 nM) [%]	cell viability (Calu-3 [1]; 1000 nM) [%]	cell viability (Calu-3 [1]; 10000 nM) [%]	cell viability (HepG2 [2]; 1 nM) [%]	cell viability (HepG2 [2]; 10 nM) [%]	cell viability (HepG2 [2]; 100 nM) [%]	cell viability (HepG2 [2]; 1000 nM) [%]	cell viability (HepG2 [2]; 10000 nM) [%]	cell viability (U2OS [3]; 1 nM) [%]	cell viability (U2OS [3]; 10 nM) [%]	cell viability (U2OS [3]; 100 nM) [%]	cell viability (U2OS [3]; 1000 nM) [%]	cell viability (U2OS [3]; 10000 nM) [%]	cell viability (Vero E6 [4]; 1 nM) [%]	cell viability (Vero E6 [4]; 10 nM) [%]	cell viability (Vero E6 [4]; 100 nM) [%]	cell viability (Vero E6 [4]; 1000 nM) [%]	cell viability (Vero E6 [4]; 10000 nM) [%]	relative viability EC50 (Calu-3 [5]) [µM]	relative viability EC50 (HepG2 [6]) [µM]	relative viability EC50 (U2OS [7]) [µM]	relative viability EC50 (Vero E6 [8]) [µM]	drug sensitivity score (Calu-3 [9])	drug sensitivity score (HepG2 [10])	drug sensitivity score (U2OS [11])	drug sensitivity score (Vero E6 [12])	cell viability (Caco-2 [13]; 1 nM) [%]	cell viability (Caco-2 [13]; 10 nM) [%]	cell viability (Caco-2 [13]; 100 nM) [%]	cell viability (Caco-2 [13]; 1000 nM) [%]	cell viability (Caco-2 [13]; 10000 nM) [%]	drug sensitivity score (Caco-2 [14])	relative viability EC50 (Caco-2 [15]) [µM]
C=C1CC[C@H](O)C/C1=C/C=C1\CCC[C@]2(C)[C@@H]([C@H](C)/C=C/[C@H](C)C(C)C)CC[C@@H]12 [ergocalciferol]	86.5	89.2	80.2	108	104	114	99.3	112	97.5	93	99.3	99.6	96.2	100	94.3	102	105	96.2	93.6	101	> 10	> 10	> 10	> 10	0	0	0	0	–	–	–	–	–	–	–
CSc1nc(-c2ccc(F)cc2)c(-c2ccnc(N[C@@H](C)c3ccccc3)c2)[nH]1 [ML3403]	101	99.1	103	94.5	89.8	100	101	97.6	105	86.5	99.9	99.1	100	94.8	90.9	102	105	101	99.8	88.7	> 10	> 10	> 10	> 10	0	0.1	0	0	94.6	93.4	97.3	94.2	74.2	1.9	–
CCCCc1ccc2[nH]c(NC(=O)OC)nc2c1 [parbendazole]	103	96.1	96.9	69.8	57.2	82.9	98.3	98.2	51.7	31.5	96.4	98	93.2	59.2	32.7	96	98.2	94.5	39	28.8	–	0.641	0.676	0.38	5.9	9.6	8.8	12	104	94.7	91.7	59.9	48.9	8.3	0.353
CCCCCOc1ccc(-c2cc(-c3ccc(C(=O)N[C@H]4C[C@@H](O)[C@@H](O)NC(=O)[C@@H]5[C@@H](O)[C@@H](C)CN5C(=O)[C@H]([C@H](O)CC(N)=O)NC(=O)[C@H]([C@H](O)[C@@H](O)c5ccc(O)c(OS(=O)(=O)O)c5)NC(=O)[C@@H]5C[C@@H](O)CN5C(=O)[C@H]([C@@H](C)O)NC4=O)cc3)no2)cc1 [micafungin]	106	108	98.3	99.4	115	98.4	117	106	81.8	109	104	102	103	101	99.4	99.2	101	106	97.2	92.9	> 10	> 10	> 10	> 10	0	0	0	0	–	–	–	–	–	–	–
Cc1nc(C#Cc2ccnc(Cl)c2)c(C)n1-c1ccc(F)cc1 [basimglurant]	88.4	90.6	92.2	92.4	95.8	104	99.5	102	95.3	77.4	91.4	96.1	101	91.9	93.2	106	101	96.9	102	91.3	> 10	> 10	> 10	> 10	0	1.4	0	0	101	95.2	101	90.5	66.5	3	–
CCOc1ccccc1-n1c(C(C)N2CCN(C(=O)COc3ccc(Cl)cc3)CC2)nc2ccccc2c1=O (configuration not stated) [erastin]	113	97.4	109	81.3	13.5	96.6	102	109	89.8	5.5	–	–	–	–	–	96	99.4	95.8	97.2	15.5	1.67	2.27	–	2.92	7.8	6.9	–	5.1	103	94.8	96.9	97.1	43.4	3.5	2.76
CO/N=C(\C(=O)N[C@@H]1C(=O)N2C(C(=O)O)=C(CSc3nc(=O)c(O)nn3C)CS[C@H]12)c1csc(N)n1 [ceftriaxone]	92.7	94.5	95.2	92	105	93	96.7	96.5	97.3	97.9	100	94.2	94.5	95.7	97.2	96.6	102	96	106	95.5	> 10	> 10	> 10	> 10	0	0	0	0	–	–	–	–	–	–	–
Cc1cc(CC(=O)O)n(C)c1C(=O)c1ccc(Cl)cc1 [zomepirac]	94.7	99.6	97.4	94.3	103	88	84.9	84.7	101	91.6	96.6	101	92.9	97.7	99.6	105	94.6	104	94.4	93.7	> 10	> 10	> 10	> 10	0	0.1	0	0	94.4	97.7	75.3	74.4	77.8	7.3	–
Nc1cccc(CNC(=O)c2ccc(Oc3ccc(OCc4cccc(F)c4)cc3)nc2)c1	104	101	96.1	97.7	81.9	92.9	102	103	91.8	77.9	99	106	94.8	101	92.1	93.4	99.9	98.8	102	99.3	> 10	> 10	> 10	> 10	0.7	1.7	0	0	100	102	91.5	107	71.2	0.9	–
COCCCOc1cc(C[C@@H](C[C@H](N)[C@@H](O)C[C@H](C(=O)NCC(C)(C)C(N)=O)C(C)C)C(C)C)ccc1OC [aliskiren-hemifumarate]	88.8	101	96.5	96	88	111	103	103	87.5	100	97.2	102	101	103	93.7	93.8	95.3	91.8	93.9	93.2	> 10	> 10	> 10	> 10	0	0	0	0	84.8	81.9	70.4	89.1	100	3.7	–
C/C(=C\c1csc(C)n1)[C@@H]1C[C@@H]2O[C@]2(C)CCC[C@H](C)[C@H](O)[C@@H](C)C(=O)C(C)(C)[C@@H](O)CC(=O)O1 [epothilone-B]	91.8	66	53.8	54.7	59.3	52.3	29.7	18.4	19.8	32	50.3	39.9	23.9	30.7	44.3	77.6	48.9	29.9	35.7	45.4	–	< 0.001	< 0.001	0.0026	19	37.2	33.1	29.5	79.8	54.2	47.6	52.8	50.6	24	0.0016
CCC(=O)OCC(=O)[C@@]1(OC(=O)CC)[C@@H](C)C[C@H]2[C@@H]3CCC4=CC(=O)C=C[C@]4(C)[C@@]3(F)[C@@H](O)C[C@@]21C [BETAMETHASONE 17,21-DIPROPIONATE]	–	–	–	–	–	103	88.3	101	95.5	110	91.6	96.8	93.7	97	102	103	95.2	91.2	92.9	99.1	–	> 10	> 10	> 10	–	0	0	0	99	97.8	99.9	111	98.2	0	> 10
O[C@H]1[C@H](O)[C@@H](O)CN2CC[C@H](O)[C@H]12 [castanospermine]	102	96.6	96.9	103	104	101	99.3	102	110	97.5	–	–	–	–	–	97.4	99.3	91	102	91.8	> 10	> 10	–	> 10	0	0	–	0	100	99	106	98.2	100	0	> 10
CSC[C@H](N)C(=O)O [S-methylcysteine]	–	–	–	–	–	89.3	100	95.6	92.3	99.3	101	98.7	104	98.1	102	92.8	93.6	97.1	96.3	105	–	> 10	> 10	> 10	–	0	0	0	79.7	105	86.5	101	97.3	0	> 10
COC(=O)c1cc2c(C(F)(F)F)cc(-c3ccccc3)cc2n1O [NHI-2]	–	–	–	–	–	95.1	103	110	98.2	99.3	103	98.1	102	97.1	101	104	104	98.8	101	97.5	–	> 10	> 10	> 10	–	0	0	0	106	90.2	102	90.1	91.2	0	> 10
